Assay results from patent publication US7705016B2, “Regulation of food intake by modulation of long-chain fatty acyl-CoA levels in the hypothalamus” (Albert Einstein College of Medicine of Yeshiva University, priority 2003, dated 2010).

Experiments:
hypothalamic NPY mRNA = assay: Hypothalamic NPY expression after ICV OA (northern blot); format: in vivo, rat; details: 30 nmol ICV bolus
Protocol: NPY Expression Studies. For analysis of NPY expression, we studied two groups of rats, HF55 and HF140. After three days on the respective diet regimen, ICV Vehicle (10% HPB in aCSF) or ICV OA (30 nmol) was injected as a bolus into the third cerebral ventricle one hour before the start of the dark cycle. Food was withdrawn and hypothalami were harvested 16 hrs following injection. Northern Blot Analysis. Total RNA was isolated from hypothalami and liver with Trizol (Invitrogen Corp., California, USA). NPY, Glc-6-Pase or PEPCK expression was measured by northern blot analysis. Hypothalamic RNA was analyzed using probes for prepro-NPY and β-actin. To assess the effect of ICV OA on the expression of hepatic enzymes, total RNA was isolated from freeze-clamped liver tissues from rats subjected to insulin clamp studies. Glc-6-Pase and PEPCK cDNA were obtained as previously described (Combs et al., 2001; Massillon et al., 1996; 1998). Probes were labeled with [α-^32P] dCTP using a random primer kit (Stratagene). Quantification was performed by scanning densitometry, normalizing for β-actin signal and 18S ribosomal RNA to correct for loading variabilities.

CPT1L mRNA = CPT1L mRNA in stably transfected AtT20 cells (northern blot); format: cell-based; details: AtT20 cells expressing CPT1L-Ribo; normalized to β-actin
From the text: Potent anorexic drugs such as fatty acid synthase (FAS) inhibitors increase the levels of malonyl-CoA, which is derived from the carboxylation of acetyl-CoA by the enzyme acetyl-CoA carboxylase (ACC). High levels of malonyl-CoA in turn inhibit CPT1-dependent oxidation of long-chain fatty acyl-CoAs (LC-CoAs). Similarly, the ICV administration of exogenous fatty acids (LCFA) directly increases the cellular levels of LC-CoA. In either case the resulting increase in intracellular LC-CoA concentration leads to inhibition of feeding behavior. […] LEFT: A probe specific for the liver isoform of CPT1 (CPT1L) detected a ˜4.3 Kb band in the liver (L) and in hypothalamus (H), but not in hind limb muscle (M). RIGHT: Hybridization with a muscle-specific CPT1 probe (CPT1M) detected a ˜3 Kb band in […] muscle (M), but not in hypothalamus. Each lane contained 1.5 μg of mRNA. […] About 200 stable clones were selected for neomycin resistance and analyzed by Northern blot. […] Data are expressed as % of control after normalization with β-actin expression. […] Levels of LC-CoAs were measured by HPLC in liver and skeletal muscle tissues of rats infused IV with vehicle (▪) or CPT1 inhibitors (□). […]
Quantitation of CPT1 and neuropeptides mRNA by Northern and real-time PCR. […]

Row | Compound | suppression of hypothalamic NPY mRNA expression (hypothalamic NPY mRNA; 55-kcal/d group, overnight fast) [%] | decrease in hypothalamic NPY mRNA (hypothalamic NPY mRNA; three days of voluntary overfeeding (HF140), fasted) [%] | less CPT1L mRNA than control cells transfected with vector alone (CPT1L mRNA) [%]
1 | CCCCCCCC/C=C\CCCCCCCC(=O)O [OA, oleic acid] | ~60 | 28 | –
2 | CPT1L-Ribo: plasmid (pTarget, CMV promoter) expressing a hammerhead ribozyme that specifically cleaves rat CPT1L mRNA, complexed to PEI for ICV injection (DNA CUGUACCAAAGAGCUGUAGAGUCCGUGAGGACGAAACGCCGCUCACAAUG) | – | – | ~50
